Assay results: the NIST ThermoML archive (doi:10.1021/je060139a)

Experiments:
[1] = xn = mol fraction of the nth substance listed; conditions: Wilhelmy plate method
[2] = refractive index (Na D-line) (dimensionless); xn = mol fraction of the nth substance listed; conditions: 100.5 kPa, Liquid, Standard Abbe refractometry

CCOC(=O)CC(C)=O [ethyl 3-oxobutanoate] + CCO
Conditions	refractive index, 288.15 K	refractive index, 298.18 K	refractive index, 308.15 K	refractive index, 318.15 K	surface tension liquid-gas, 288.15 K [mN/m]	surface tension liquid-gas, 298.18 K [mN/m]	surface tension liquid-gas, 308.15 K [mN/m]	surface tension liquid-gas, 318.15 K [mN/m]
[1], x1 = 0.05	–	–	–	–	23.53	22.77	21.91	20.98
[1], x1 = 0.1	–	–	–	–	24.1	23.31	22.42	21.46
[1], x1 = 0.15	–	–	–	–	24.65	23.83	22.91	21.94
[1], x1 = 0.2	–	–	–	–	25.22	24.38	23.42	22.43
[1], x1 = 0.25	–	–	–	–	25.77	24.89	23.9	22.9
[1], x1 = 0.3	–	–	–	–	26.28	25.38	24.38	23.37
[1], x1 = 0.35	–	–	–	–	26.78	25.88	24.84	23.83
[1], x1 = 0.4	–	–	–	–	27.28	26.36	25.32	24.3
[1], x1 = 0.45	–	–	–	–	27.8	26.86	25.81	24.79
[1], x1 = 0.5	–	–	–	–	28.35	27.4	26.32	25.29
[1], x1 = 0.55	–	–	–	–	28.92	27.96	26.84	25.8
[1], x1 = 0.6	–	–	–	–	29.46	28.52	27.38	26.31
[1], x1 = 0.65	–	–	–	–	30.02	29.04	27.9	26.81
[1], x1 = 0.7	–	–	–	–	30.54	29.55	28.4	27.3
[1], x1 = 0.75	–	–	–	–	31.05	30.06	28.89	27.78
[1], x1 = 0.8	–	–	–	–	31.53	30.54	29.36	28.24
[1], x1 = 0.85	–	–	–	–	32.02	31.01	29.81	28.7
[1], x1 = 0.9	–	–	–	–	32.47	31.46	30.26	29.14
[1], x1 = 0.95	–	–	–	–	32.91	31.89	30.68	29.56
[1], x1 = 1	–	–	–	–	33.3	32.3	31.1	30
[2], x1 = 0.05	1.3696	1.3654	1.3612	1.3572	–	–	–	–
[2], x1 = 0.1	1.3751	1.3709	1.3666	1.3625	–	–	–	–
[2], x1 = 0.15	1.38	1.3757	1.3714	1.3672	–	–	–	–
[2], x1 = 0.2	1.3843	1.3801	1.3758	1.3715	–	–	–	–
[2], x1 = 0.25	1.3882	1.384	1.3797	1.3755	–	–	–	–
[2], x1 = 0.3	1.3918	1.3876	1.3833	1.379	–	–	–	–
[2], x1 = 0.35	1.3951	1.3908	1.3866	1.3823	–	–	–	–
[2], x1 = 0.4	1.3981	1.3938	1.3896	1.3852	–	–	–	–
[2], x1 = 0.45	1.4009	1.3965	1.3923	1.388	–	–	–	–
[2], x1 = 0.5	1.4034	1.3991	1.3949	1.3905	–	–	–	–
[2], x1 = 0.55	1.4058	1.4014	1.3972	1.3928	–	–	–	–
[2], x1 = 0.6	1.4079	1.4036	1.3994	1.395	–	–	–	–
[2], x1 = 0.65	1.41	1.4056	1.4014	1.397	–	–	–	–
[2], x1 = 0.7	1.4119	1.4075	1.4033	1.3989	–	–	–	–
[2], x1 = 0.75	1.4137	1.4093	1.4051	1.4007	–	–	–	–
[2], x1 = 0.8	1.4154	1.4111	1.4069	1.4024	–	–	–	–
[2], x1 = 0.85	1.417	1.4126	1.4084	1.404	–	–	–	–
[2], x1 = 0.9	1.4184	1.4141	1.4099	1.4054	–	–	–	–
[2], x1 = 0.95	1.4198	1.4154	1.4112	1.4068	–	–	–	–
[2], x1 = 1	1.4209	1.4166	1.4125	1.408	–	–	–	–

CCOC(=O)c1ccccc1O [ethyl 2-hydroxybenzoate] + CCO
Conditions	refractive index, 288.15 K	refractive index, 298.18 K	refractive index, 308.15 K	refractive index, 318.15 K	surface tension liquid-gas, 288.15 K [mN/m]	surface tension liquid-gas, 298.18 K [mN/m]	surface tension liquid-gas, 308.15 K [mN/m]	surface tension liquid-gas, 318.15 K [mN/m]
[1], x1 = 0.05	–	–	–	–	24	23.17	22.27	21.3
[1], x1 = 0.1	–	–	–	–	24.8	23.9	22.94	21.97
[1], x1 = 0.15	–	–	–	–	25.5	24.55	23.55	22.57
[1], x1 = 0.2	–	–	–	–	26.1	25.14	24.13	23.17
[1], x1 = 0.25	–	–	–	–	26.65	25.65	24.67	23.7
[1], x1 = 0.3	–	–	–	–	27.2	26.15	25.17	24.2
[1], x1 = 0.35	–	–	–	–	27.7	26.65	25.62	24.67
[1], x1 = 0.4	–	–	–	–	28.1	27.1	26.08	25.17
[1], x1 = 0.45	–	–	–	–	28.6	27.55	26.58	25.7
[1], x1 = 0.5	–	–	–	–	29.13	28.1	27.12	26.25
[1], x1 = 0.55	–	–	–	–	29.71	28.66	27.68	26.8
[1], x1 = 0.6	–	–	–	–	30.33	29.25	28.26	27.38
[1], x1 = 0.65	–	–	–	–	31	29.9	28.9	28
[1], x1 = 0.7	–	–	–	–	31.7	30.6	29.56	28.67
[1], x1 = 0.75	–	–	–	–	32.5	31.38	30.3	29.4
[1], x1 = 0.8	–	–	–	–	33.4	32.25	31.13	30.2
[1], x1 = 0.85	–	–	–	–	34.4	33.18	32.03	31.1
[1], x1 = 0.9	–	–	–	–	35.4	34.18	33.03	32.18
[1], x1 = 0.95	–	–	–	–	36.4	35.17	34.07	33.2
[1], x1 = 1	–	–	–	–	37.5	36.3	35.2	34.4
[2], x1 = 0.05	1.38326	1.37908	1.37478	1.37068	–	–	–	–
[2], x1 = 0.1	1.40028	1.39599	1.39159	1.38739	–	–	–	–
[2], x1 = 0.15	1.41504	1.41072	1.40628	1.40202	–	–	–	–
[2], x1 = 0.2	1.42788	1.42347	1.41902	1.4147	–	–	–	–
[2], x1 = 0.25	1.43914	1.43468	1.4302	1.4258	–	–	–	–
[2], x1 = 0.3	1.44918	1.44465	1.44012	1.43567	–	–	–	–
[2], x1 = 0.35	1.4582	1.45364	1.44908	1.44456	–	–	–	–
[2], x1 = 0.4	1.46635	1.46177	1.45719	1.45266	–	–	–	–
[2], x1 = 0.45	1.47375	1.46918	1.46462	1.46008	–	–	–	–
[2], x1 = 0.5	1.48051	1.47593	1.47139	1.46685	–	–	–	–
[2], x1 = 0.55	1.4867	1.48212	1.4776	1.47306	–	–	–	–
[2], x1 = 0.6	1.49239	1.48782	1.48328	1.47873	–	–	–	–
[2], x1 = 0.65	1.49763	1.49304	1.48852	1.48397	–	–	–	–
[2], x1 = 0.7	1.50246	1.49784	1.49331	1.48874	–	–	–	–
[2], x1 = 0.75	1.50695	1.50232	1.49779	1.49321	–	–	–	–
[2], x1 = 0.8	1.51112	1.50649	1.50196	1.49738	–	–	–	–
[2], x1 = 0.85	1.51498	1.51035	1.50582	1.50123	–	–	–	–
[2], x1 = 0.9	1.51852	1.51391	1.50938	1.50479	–	–	–	–
[2], x1 = 0.95	1.52184	1.51723	1.51272	1.50814	–	–	–	–
[2], x1 = 1	1.52481	1.52022	1.51573	1.51116	–	–	–	–
